From US9890166B2, “Imidazopyrrolidine derivatives and their use in the treatment of disease” (NOVARTIS AG, priority 2013, dated 2018) come the findings set out here.

The target of one test is BRD2 (His-Brd2(60-472)) (Homo sapiens (Human), UniProt P25440). The experiment in a line: TR-FRET in-vitro binding assay for BRD2. As to conditions: single determination or n ≧ 2 independent determinations, read-out: Biochemical IC50 BRD2. A digest of the protocol: (§1)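 TR-FRET binding with His-tagged bromodomain constructs, 8-point compound dilutions from 10 mM DMSO stocks. Reactions incubated 35 min at 30° C in 13.55 μL, read on an EnVision multilabel reader.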

Test [1] deals with CREBBP bromodomain (His-CREBBP(1081-1197)) (Homo sapiens (Human), UniProt Q92793). The experiment in a line: AlphaScreen in-vitro binding assay for CREBBP. As to conditions: single determination or n ≧ 2 independent determinations, read-out: Biochemical IC50 CREBBP. In outline:
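Reactions at 30 °C for 35 min, then Ni-chelate acceptor and streptavidin donor beads in HEPES pH 7.5, NaCl, Tween20, BSA, 60 min at room temperature. Eight-point compound series; IC50 by non-linear regression of percent inhibition.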
A general note: Bead proximity is the source of the signal in Alpha formats.

In a further test the test system is K-562 cells. Put plainly: Cell growth inhibition assay (CellTiter-Glo), K-562.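 On all read-outs here: cellular ATP measured by luminescence after 4 days of exposure, 3-fold dilution series from 10 µM, DMSO vehicle-treated cells define 100%, cell-free medium wells −100%.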 Particulars: for GI50: Homo sapiens, K562, read-out: K-562 GI50; for K-562 TGI: K-562 cells, total growth inhibition, CellTiter-Glo. In general terms: ATP-based viability assays read luminescence as a measure of living cells.
Another test has as its system THP-1 cells. Put plainly: Cell growth inhibition assay (CellTiter-Glo), THP-1.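 On all read-outs here: viability read as cellular ATP luminescence after 4 days, 3-fold dilution series from 10 µM, DMSO vehicle-treated cells taken as 100%, cell-free medium wells as −100%.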 As to conditions: for GI50: Homo sapiens, THP-1, read-out: THP-1 GI50; for THP-1 TGI: THP-1 cells, total growth inhibition, CellTiter-Glo.
The subject of a further test is MV-4-11 cells. Put plainly: Cell growth inhibition assay (CellTiter-Glo), MV-4-11.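 On all read-outs here: cellular ATP luminescence after 4 days, 3-fold dilution series from 10 µM top dose, vehicle (0.1% DMSO) set to 100%, cell-free medium set to −100%, day 0 corrected.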 Particulars: for GI50: Homo sapiens, MV4-11, read-out: MV-4-11 GI50; for MV-4-11 TGI: MV-4-11 cells, total growth inhibition, CellTiter-Glo.
Another test addresses BRD4 (His-Brd4(44-477)) (Homo sapiens (Human), UniProt O60885). The experiment in a line: TR-FRET in-vitro binding assay for BRD4. Particulars: single determination or n ≧ 2 independent determinations, read-out: Biochemical IC50 BRD4. In outline: as §1
For orientation: TR-FRET usually uses a lanthanide donor and a delayed reading to cut background.

For another test, the target named is BRD3 (His-Brd3(20-477)) (Homo sapiens (Human), UniProt Q15059). Put plainly: TR-FRET in-vitro binding assay for BRD3. As to conditions: single determination or n ≧ 2 independent determinations, read-out: Biochemical IC50 BRD3. A digest of the protocol: as §1
In test [2] the target is nuclear BRD4-NUT foci in HCC2494 NUT midline carcinoma cells (Homo sapiens, UniProt O60885). The experiment in a line: cell-based.

SMILES strings stand for the structures. A value given as a limit tells only on which side of the number the result lay.

Sequence of CREBBP bromodomain (His-CREBBP(1081-1197)) (Q92793 1081-1197): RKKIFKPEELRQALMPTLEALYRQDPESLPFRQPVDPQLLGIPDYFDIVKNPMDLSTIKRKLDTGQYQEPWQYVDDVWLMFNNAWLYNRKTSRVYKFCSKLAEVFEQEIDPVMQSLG
Sequence of BRD3 (His-Brd3(20-477)) (Q15059 20-477): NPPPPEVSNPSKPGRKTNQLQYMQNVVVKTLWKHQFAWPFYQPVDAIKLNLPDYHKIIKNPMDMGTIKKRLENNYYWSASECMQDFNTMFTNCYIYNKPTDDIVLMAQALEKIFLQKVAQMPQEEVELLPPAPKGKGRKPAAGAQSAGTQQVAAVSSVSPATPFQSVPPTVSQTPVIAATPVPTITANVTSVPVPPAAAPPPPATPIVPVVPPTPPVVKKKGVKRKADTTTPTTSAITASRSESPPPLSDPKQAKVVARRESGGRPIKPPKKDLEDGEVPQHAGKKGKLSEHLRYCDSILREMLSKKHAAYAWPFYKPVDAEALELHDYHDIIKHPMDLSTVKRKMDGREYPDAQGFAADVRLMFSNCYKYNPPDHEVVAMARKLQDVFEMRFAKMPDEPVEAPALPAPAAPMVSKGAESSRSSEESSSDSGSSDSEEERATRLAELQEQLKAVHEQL
Sequence of BRD2 (His-Brd2(60-472)) (P25440 60-472): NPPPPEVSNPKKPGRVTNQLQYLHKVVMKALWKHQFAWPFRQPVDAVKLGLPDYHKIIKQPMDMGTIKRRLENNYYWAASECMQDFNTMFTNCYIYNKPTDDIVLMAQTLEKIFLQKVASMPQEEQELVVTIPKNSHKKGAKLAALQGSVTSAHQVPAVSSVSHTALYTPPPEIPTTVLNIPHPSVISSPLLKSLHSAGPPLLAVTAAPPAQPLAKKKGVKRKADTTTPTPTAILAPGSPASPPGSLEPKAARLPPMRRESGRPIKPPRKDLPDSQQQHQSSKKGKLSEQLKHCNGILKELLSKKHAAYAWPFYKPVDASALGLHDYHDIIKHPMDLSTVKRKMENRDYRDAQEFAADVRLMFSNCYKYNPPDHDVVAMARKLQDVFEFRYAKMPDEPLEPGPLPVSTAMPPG

As for `COc1cc(N2C(=O)c3nc(C4=CCOCC4)n(C(C)C)c3C2c2ccc(Cl)cc2)cn2c(C)nnc12` (stereo not shown) [Example 53, 6-(4-chlorophenyl)-2-(3,6-dihydro-2H-pyran-4-yl)-1-isopropyl-5-(8-methoxy-3-methyl-[1,2,4]triazolo[4,3-a]pyridin-6-yl)-5,6-dihydropyrrolo[3,4-d]imidazol-4(1H)-one], the IC50 was 220 nM on BRD2 (His-Brd2(60-472)); greater than 37000 nM in test [1]; 92 nM on BRD4 (His-Brd4(44-477)); 200 nM at BRD3 (His-Brd3(20-477)); 1330 nM in test [2]. For the same molecule, the GI50 in the test on K-562 cells came out at 7990 nM; in the test on THP-1 cells, 1270 nM; in the test on MV-4-11 cells, 505 nM. In addition, in the test on K-562 cells, the “K-562 TGI” value is greater than 10000 nM. The “THP-1 TGI” value with THP-1 cells was determined as 3740 nM. Moreover, the “MV-4-11 TGI” value in the test with MV-4-11 cells was found to be 939 nM.

For `COc1ncc(-c2nc3c(n2C)C(c2ccc(Cl)cc2)N(c2cc(OC)c4nnc(C)n4c2)C3=O)c(OC)n1` (stereo not shown) [Example 54, 6-(4-chlorophenyl)-2-(2,4-dimethoxypyrimidin-5-yl)-5-(8-methoxy-3-methyl-[1,2,4]triazolo[4,3-a]pyridin-6-yl)-1-methyl-5,6-dihydropyrrolo[3,4-d]imidazol-4(1H)-one], the IC50 was 120 nM at BRD2 (His-Brd2(60-472)); greater than 37000 nM in test [1]; 59 nM on BRD4 (His-Brd4(44-477)); 98 nM on BRD3 (His-Brd3(20-477)); 3390 nM in test [2]. In addition, the results for the GI50 in the test with K-562 cells, in the test with THP-1 cells and in the test on MV-4-11 cells were greater than 10000 nM, 3710 nM and 2100 nM, respectively. Besides, in the test with K-562 cells, the “K-562 TGI” value was greater than 10000 nM. In addition, the “THP-1 TGI” value in the test on THP-1 cells was greater than 10000 nM. Besides, the “MV-4-11 TGI” value in the test on MV-4-11 cells worked out at 3600 nM.

For `COc1ccc(-c2nc3c(n2C)C(c2ccc(Cl)cc2)N(c2cc(OC)c4nnc(C)n4c2)C3=O)cn1` (stereo not shown) [Example 55, 6-(4-chlorophenyl)-5-(8-methoxy-3-methyl-[1,2,4]triazolo[4,3-a]pyridin-6-yl)-2-(6-methoxypyridin-3-yl)-1-methyl-5,6-dihydropyrrolo[3,4-d]imidazol-4(1H)-one], the IC50 was 110 nM at BRD2 (His-Brd2(60-472)); greater than 37000 nM in test [1]; 56 nM on BRD4 (His-Brd4(44-477)); 92 nM on BRD3 (His-Brd3(20-477)); 2800 nM in test [2]. The GI50 turned out to be 7250 nM in the test on K-562 cells, 2000 nM in the test with THP-1 cells and 706 nM with MV-4-11 cells. Besides, the “K-562 TGI” value in the test with K-562 cells is greater than 10000 nM. Also, in the test on THP-1 cells, the “THP-1 TGI” value was determined as 4410 nM. The “MV-4-11 TGI” value with MV-4-11 cells is 1060 nM.

Take `COc1cc(N2C(=O)c3nc(C4CC4)n(C)c3C2c2ccc(Cl)cc2)cn2c(C)nnc12` (stereo not shown) [Example 56, 6-(4-chlorophenyl)-2-cyclopropyl-5-(8-methoxy-3-methyl-[1,2,4]triazolo[4,3-a]pyridin-6-yl)-1-methyl-5,6-dihydropyrrolo[3,4-d]imidazol-4(1H)-one]: the IC50 on BRD2 (His-Brd2(60-472)) was 290 nM; in test [1], greater than 37000 nM; at BRD4 (His-Brd4(44-477)), 130 nM; at BRD3 (His-Brd3(20-477)), 210 nM; in test [2] it was 1210 nM. For the same molecule, the figures for the GI50 in the test with K-562 cells, with THP-1 cells and with MV-4-11 cells were 3230 nM, 1240 nM and 816 nM, respectively. Besides, in the test with K-562 cells, the “K-562 TGI” value was greater than 10000 nM. Besides, in the test with THP-1 cells, the “THP-1 TGI” value is 3670 nM. For the same molecule, in the test with MV-4-11 cells, the “MV-4-11 TGI” value was determined as 1340 nM.

On to `Cc1cc(N2C(=O)c3nc(C4CC4)n(C)c3C2c2ccc(Cl)cc2)cn2c(C)nnc12` (stereo not shown) [Example 57, 6-(4-chlorophenyl)-2-cyclopropyl-5-(3,8-dimethyl-[1,2,4]triazolo[4,3-a]pyridin-6-yl)-1-methyl-5,6-dihydropyrrolo[3,4-d]imidazol-4(1H)-one], for which the IC50 was less than 11 nM on BRD2 (His-Brd2(60-472)); 5100 nM in test [1]; less than 11 nM at BRD4 (His-Brd4(44-477)); less than 11 nM on BRD3 (His-Brd3(20-477)); 91.2 nM in test [2]. Also, the GI50 in the test on K-562 cells came out at 572 nM; with THP-1 cells it was 83.6 nM; with MV-4-11 cells, 40.5 nM. The “K-562 TGI” value in the test with K-562 cells is greater than 10000 nM. Besides, the “THP-1 TGI” value in the test on THP-1 cells was determined as 193 nM. The “MV-4-11 TGI” value with MV-4-11 cells came out at 68.8 nM.

On to `Cc1cc(N2C(=O)c3c(nc(C)n3C(C)C)[C@H]2c2ccc(Cl)cc2)cc2c1nnn2C` [Example 118, (R)-6-(4-chlorophenyl)-5-(3,7-dimethyl-3H-benzo[d][1,2,3]triazol-5-yl)-3-isopropyl-2-methyl-5,6-dihydropyrrolo[3,4-d]imidazol-4(3H)-one], for which the IC50 on BRD2 (His-Brd2(60-472)) was 14 nM; in test [1], 1080 nM; on BRD4 (His-Brd4(44-477)) it was less than 11 nM; on BRD3 (His-Brd3(20-477)), 12 nM; in test [2], 3.4 nM. In addition, the GI50 with K-562 cells is 28.4 nM; with THP-1 cells, 5.12 nM; in the test with MV-4-11 cells it was 2.1 nM. In addition, in the test on K-562 cells, the “K-562 TGI” value was greater than 10000 nM. Besides, the “THP-1 TGI” value in the test with THP-1 cells was 12.5 nM. In addition, the “MV-4-11 TGI” value with MV-4-11 cells is 3.79 nM.

As for `CCn1c(C)nc2c1C(=O)N(c1cc(C)c3nnn(C)c3c1)C2c1ccc(Cl)cc1` (stereo not shown) [Example 121, 6-(4-chlorophenyl)-5-(3,7-dimethyl-3H-benzo[d][1,2,3]triazol-5-yl)-3-ethyl-2-methyl-5,6-dihydropyrrolo[3,4-d]imidazol-4(3H)-one], the IC50 at BRD2 (His-Brd2(60-472)) stood at 29 nM; in test [1] it was 4400 nM; at BRD4 (His-Brd4(44-477)) it was 29 nM; at BRD3 (His-Brd3(20-477)), 27 nM; in test [2], 3.07 nM. Also, the GI50 is 48.1 nM with K-562 cells, 9 nM in the test on THP-1 cells and 10.8 nM with MV-4-11 cells. Further, the “K-562 TGI” value in the test with K-562 cells was greater than 10000 nM. Further, the “THP-1 TGI” value with THP-1 cells worked out at 20.1 nM. In the test on MV-4-11 cells, the “MV-4-11 TGI” value came to 20.9 nM.

With `COc1ncc(-c2nc3c([nH]2)C(c2ccc(Cl)cc2)N(c2cc(OC)c4nnc(C)n4c2)C3=O)c(OC)n1` (stereo not shown) [Example 127, 6-(4-chlorophenyl)-2-(2,4-dimethoxypyrimidin-5-yl)-5-(8-methoxy-3-methyl-[1,2,4]triazolo[4,3-a]pyridin-6-yl)-5,6-dihydropyrrolo[3,4-d]imidazol-4(1H)-one], the IC50 is 360 nM on BRD2 (His-Brd2(60-472)); greater than 37000 nM in test [1]; 120 nM on BRD4 (His-Brd4(44-477)); 480 nM on BRD3 (His-Brd3(20-477)); 408 nM in test [2]. In addition, the values for the GI50 in the test with K-562 cells, with THP-1 cells and with MV-4-11 cells were 1720 nM, 377 nM and 209 nM, respectively. Moreover, the “K-562 TGI” value in the test on K-562 cells was greater than 10000 nM. The “THP-1 TGI” value with THP-1 cells was 966 nM. The “MV-4-11 TGI” value in the test on MV-4-11 cells was found to be 317 nM.

The term IC50 denotes the midpoint of a concentration-inhibition curve. The GI50 is the concentration that inhibits growth by half.
